Target: T1, SynLPD (dihydrolipoyl dehydrogenase, E3 subunit of the PDH complex) (Synechocystis sp. PCC 6803, UniProt P72740)
T1 construct: gene lpdA
T1 sequence (P72740 2-474): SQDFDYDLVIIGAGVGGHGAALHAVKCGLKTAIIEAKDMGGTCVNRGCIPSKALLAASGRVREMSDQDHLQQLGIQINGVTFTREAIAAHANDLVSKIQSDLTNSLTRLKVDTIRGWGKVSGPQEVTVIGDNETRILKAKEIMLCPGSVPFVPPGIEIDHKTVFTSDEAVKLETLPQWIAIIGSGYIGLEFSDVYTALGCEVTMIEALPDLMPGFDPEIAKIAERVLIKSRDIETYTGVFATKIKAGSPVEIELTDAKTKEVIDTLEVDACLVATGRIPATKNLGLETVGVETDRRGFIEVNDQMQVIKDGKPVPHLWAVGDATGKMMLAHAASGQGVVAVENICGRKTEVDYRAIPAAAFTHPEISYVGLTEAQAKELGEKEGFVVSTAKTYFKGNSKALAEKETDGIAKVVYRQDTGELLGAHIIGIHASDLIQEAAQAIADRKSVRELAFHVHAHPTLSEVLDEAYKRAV
Assay: NAD+ reduction at […] nm; Ki from slopes of Lineweaver-Burk plots
Format: biochemical

- Ki: 38.3 µM
SMILES: NC(=O)C1=CN([C@@H]2O[C@H](COP(=O)(O)OP(=O)(O)OC[C@H]3O[C@@H](n4cnc5c(N)ncnc54)[C@H](O)[C@@H]3O)[C@@H](O)[C@H]2O)C=CC1 [NADH]
